In patent publication US8952024B2, “Herbicidal pyrimidone derivatives” (E I du Pont de Nemours and Company, priority 2009, dated 2015):

What was measured:
Assay in all cases: Test B pre-/postemergence plant response
Format in all cases: in vivo
[1] = tested on: large crabgrass (Digitaria sanguinalis)
Summary of the method: (§1)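 Visually scored on a 0 to 100 scale after 13 to 15 days in greenhouse versus controls. Treatments were preemergence on seeded loam/sand soil and postemergence on 1- to 4-leaf plants.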

[2] = tested on: morningglory (Ipomoea coccinea)
Summary of the method: as §1

corn (Zea mays) = tested on: corn (Zea mays)
Summary of the method: as §1

[3] = tested on: blackgrass (Alopecurus myosuroides)
Summary of the method: as §1

[4] = tested on: giant foxtail (Setaria faberii)
Summary of the method: as §1

[5] = tested on: yellow nutsedge (Cyperus esculentus)
Summary of the method: as §1

[6] = tested on: green foxtail (Setaria viridis)
Summary of the method: as §1

[7] = tested on: bermudagrass (Cynodon dactylon)
Summary of the method: as §1

[8] = tested on: woolly cupgrass (Eriochloa villosa)
Summary of the method: as §1

[9] = tested on: lambsquarters (Chenopodium album)
Summary of the method: as §1

[10] = tested on: Surinam grass (Brachiaria decumbens)
Summary of the method: as §1

[11] = tested on: downy bromegrass (Bromus tectorum)
Summary of the method: as §1

[12] = tested on: Italian ryegrass (Lolium multiflorum)
Summary of the method: as §1

[13] = 31 g ai/ha, postemergence, scale 0 to 100, 0 is no effect, 100 is complete control
[14] = 250 g ai/ha, Preemergence, 0 to 100 scale
[15] = Postemergence, 62 g ai/ha, scale 0 (no effect) to 100 (complete control), 13 to 15 days
[16] = Postemergence, 125 g ai/ha, visual rating after 13 to 15 days, scale 0 (no effect) to 100 (complete control)
[17] = Postemergence, 250 g ai/ha, scale 0 to 100 (0 no effect, 100 complete control)
[18] = Preemergence, 31 g ai/ha, scale 0 to 100 (0 no effect, 100 complete control)
[19] = Preemergence, 62 g ai/ha, scale 0 to 100 (0 no effect, 100 complete control)
[20] = Preemergence, 125 g ai/ha, scale 0 to 100, 0 no effect, 100 complete control

Structure (SMILES): O=C1CCCC(O)=C1C(=O)c1cnc(-c2ccccc2)n(CC2CCCO2)c1=O (centres unmarked) [Compound 59]
- Plant response rating, Crabgrass, Large [1, 13]: 80
- Plant response rating, Crabgrass, Large [1, 14]: 98
- Plant response rating, Crabgrass, Large [1, 15]: 85
- Plant response rating, Crabgrass, Large [1, 16]: 95
- Plant response rating, Crabgrass, Large [1, 17]: 100
- Plant response rating, Crabgrass, Large [1, 18]: 55
- Plant response rating, Crabgrass, Large [1, 19]: 95
- Plant response rating, Crabgrass, Large [1, 20]: 98
- Plant response rating, Morningglory [2, 15]: 50
- Plant response rating, Morningglory [2, 16]: 80
- Plant response rating, Morningglory [2, 17]: 80
- Plant response rating, Morningglory [2, 19]: 0
- Plant response rating, Morningglory [2, 20]: 55
- Plant response rating, Corn (corn (Zea mays); [14]): 0
- Plant response rating, Corn (corn (Zea mays); [15]): 0
- Plant response rating, Corn (corn (Zea mays); [16]): 75
- Plant response rating, Corn (corn (Zea mays); [17]): 75
- Plant response rating, Corn (corn (Zea mays); [18]): 0
- Plant response rating, Corn (corn (Zea mays); [19]): 0
- Plant response rating, Corn (corn (Zea mays); [20]): 0
- Plant response rating, Blackgrass [3, 13]: 10
- Plant response rating, Blackgrass [3, 14]: 40
- Plant response rating, Blackgrass [3, 15]: 35
- Plant response rating, Blackgrass [3, 16]: 40
- Plant response rating, Blackgrass [3, 17]: 60
- Plant response rating, Blackgrass [3, 18]: 0
- Plant response rating, Blackgrass [3, 19]: 0
- Plant response rating, Blackgrass [3, 20]: 30
- Plant response rating, Foxtail, Giant [4, 13]: 75
- Plant response rating, Foxtail, Giant [4, 14]: 75
- Plant response rating, Foxtail, Giant [4, 15]: 90
- Plant response rating, Foxtail, Giant [4, 16]: 95
- Plant response rating, Foxtail, Giant [4, 17]: 95
- Plant response rating, Foxtail, Giant [4, 18]: 0
- Plant response rating, Foxtail, Giant [4, 19]: 0
- Plant response rating, Foxtail, Giant [4, 20]: 60
- Plant response rating, Nutsedge, Yellow [5, 13]: 45
- Plant response rating, Nutsedge, Yellow [5, 15]: 60
- Plant response rating, Nutsedge, Yellow [5, 16]: 70
- Plant response rating, Nutsedge, Yellow [5, 17]: 75
- Plant response rating, Nutsedge, Yellow [5, 18]: 55
- Plant response rating, Nutsedge, Yellow [5, 19]: 65
- Plant response rating, Nutsedge, Yellow [5, 20]: 85
- Plant response rating, Foxtail, Green [6, 13]: 50
- Plant response rating, Foxtail, Green [6, 14]: 98
- Plant response rating, Foxtail, Green [6, 15]: 70
- Plant response rating, Foxtail, Green [6, 16]: 70
- Plant response rating, Foxtail, Green [6, 17]: 70
- Plant response rating, Foxtail, Green [6, 19]: 70
- Plant response rating, Foxtail, Green [6, 20]: 90
- Plant response rating, Bermudagrass [7, 14]: 98
- Plant response rating, Bermudagrass [7, 15]: 90
- Plant response rating, Bermudagrass [7, 16]: 98
- Plant response rating, Bermudagrass [7, 17]: 100
- Plant response rating, Bermudagrass [7, 18]: 10
- Plant response rating, Bermudagrass [7, 19]: 98
- Plant response rating, Bermudagrass [7, 20]: 98
- Plant response rating, Cupgrass, Woolly [8, 13]: 75
- Plant response rating, Cupgrass, Woolly [8, 14]: 85
- Plant response rating, Cupgrass, Woolly [8, 15]: 75
- Plant response rating, Cupgrass, Woolly [8, 16]: 90
- Plant response rating, Cupgrass, Woolly [8, 17]: 95
- Plant response rating, Cupgrass, Woolly [8, 18]: 10
- Plant response rating, Cupgrass, Woolly [8, 19]: 65
- Plant response rating, Cupgrass, Woolly [8, 20]: 65
- Plant response rating, Lambsquarters [9, 13]: 95
- Plant response rating, Lambsquarters [9, 14]: 100
- Plant response rating, Lambsquarters [9, 15]: 98
- Plant response rating, Lambsquarters [9, 16]: 100
- Plant response rating, Lambsquarters [9, 17]: 100
- Plant response rating, Lambsquarters [9, 18]: 98
- Plant response rating, Lambsquarters [9, 19]: 100
- Plant response rating, Lambsquarters [9, 20]: 100
- Plant response rating, Surinam Grass [10, 13]: 75
- Plant response rating, Surinam Grass [10, 15]: 80
- Plant response rating, Surinam Grass [10, 16]: 90
- Plant response rating, Surinam Grass [10, 17]: 90
- Plant response rating, Surinam Grass [10, 18]: 5
- Plant response rating, Surinam Grass [10, 19]: 75
- Plant response rating, Surinam Grass [10, 20]: 85
- Plant response rating, Bromegrass, Downy [11, 13]: 5
- Plant response rating, Bromegrass, Downy [11, 14]: 0
- Plant response rating, Bromegrass, Downy [11, 15]: 30
- Plant response rating, Bromegrass, Downy [11, 16]: 35
- Plant response rating, Bromegrass, Downy [11, 17]: 45
- Plant response rating, Bromegrass, Downy [11, 18]: 0
- Plant response rating, Bromegrass, Downy [11, 19]: 0
- Plant response rating, Bromegrass, Downy [11, 20]: 0
- Plant response rating, Ryegrass, Italian [12, 13]: 5
- Plant response rating, Ryegrass, Italian [12, 15]: 50
- Plant response rating, Ryegrass, Italian [12, 16]: 70
- Plant response rating, Ryegrass, Italian [12, 17]: 80
- Plant response rating, Ryegrass, Italian [12, 18]: 0
- Plant response rating, Ryegrass, Italian [12, 19]: 0
- Plant response rating, Ryegrass, Italian [12, 20]: 20
